Organism: Rattus norvegicus
Test: Open TG-GATES - Regimen: Single
Type: toxicity, organism-based, Sprague-Dawley
Set-up: regimen Single, gender Male, age 6 weeks
Settings: in vivo, po, 6 mg/kg, route gavage, dose level High; for APTT / Bas / Eos / Fbg / Hb / Ht / Lym / MCH / MCHC / MCV / Mono / Neu / PT / Plat / RBC / Ret / WBC: tissue Blood; for KIDNEY_L / KIDNEY_R / KIDNEY_TOTAL: tissue Kidney; for LIVER: tissue Liver; for A/G / ALP / ALT / AST / BUN / CRE / Ca / Cl / DBIL / GLC / IP / K / LDH / Na / PL / RALB / TBIL / TC / TG / TP / gamma-GTP: tissue Plasma

O=NN(CCCl)C(=O)NC1CCCCC1 [LOMUSTINE]
TERMINAL_BW (3 h): 203.9 g
APTT (3 h): 16.2 s
Bas (3 h): 0%
Eos (3 h): 0.4%
Fbg (3 h): 212.6 mg/dL
Hb (3 h): 13.3 g/dL
Ht (3 h): 39.7%
Lym (3 h): 78.2%
MCH (3 h): 21.7 pg
MCHC (3 h): 33.4%
MCV (3 h): 64.8 fL
Mono (3 h): 9.4%
Neu (3 h): 12.2%
PT (3 h): 11.4 s
Plat (3 h): 106.7 x10_4/uL
RBC (3 h): 612.4 x10_4/ul
Ret (3 h): 8.5%
WBC (3 h): 112.2 x10_2/uL
KIDNEY_L (3 h): 0.9 g
KIDNEY_R (3 h): 0.9 g
KIDNEY_TOTAL (3 h): 1.9 g
LIVER (3 h): 10 g
A/G (3 h): 1.8
ALP (3 h): 970.2 IU/L
ALT (3 h): 36.6 IU/L
AST (3 h): 67.6 IU/L
BUN (3 h): 13.8 mg/dL
CRE (3 h): 0.5 mg/dL
Ca (3 h): 11.3 mg/dL
Cl (3 h): 105.4 meq/L
DBIL (3 h): 0.028 mg/dL
GLC (3 h): 189.6 mg/dL
IP (3 h): 10.3 mg/dL
K (3 h): 4.7 meq/L
LDH (3 h): 161 IU/L
Na (3 h): 140.4 meq/L
PL (3 h): 134 mg/dL
RALB (3 h): 3.6 g/dL
TBIL (3 h): 0.3 mg/dL
TC (3 h): 73.8 mg/dL
TG (3 h): 56.2 mg/dL
TP (3 h): 5.6 g/dL
gamma-GTP (3 h): 1.6 IU/L
TERMINAL_BW (6 h): 201.4 g
APTT (6 h): 16.7 s
Bas (6 h): 0%
Eos (6 h): 0.4%
Fbg (6 h): 217.8 mg/dL
Hb (6 h): 13.1 g/dL
Ht (6 h): 39.4%
Lym (6 h): 78.6%
MCH (6 h): 22.2 pg
MCHC (6 h): 33.3%
MCV (6 h): 66.7 fL
Mono (6 h): 7.6%
Neu (6 h): 13.6%
PT (6 h): 12.1 s
Plat (6 h): 108.1 x10_4/uL
RBC (6 h): 591.6 x10_4/ul
Ret (6 h): 8.9%
WBC (6 h): 107.2 x10_2/uL
KIDNEY_L (6 h): 0.9 g
KIDNEY_R (6 h): 0.9 g
KIDNEY_TOTAL (6 h): 1.9 g
LIVER (6 h): 9.1 g
A/G (6 h): 1.9
ALP (6 h): 865 IU/L
ALT (6 h): 29.4 IU/L
AST (6 h): 66.2 IU/L
BUN (6 h): 10.4 mg/dL
CRE (6 h): 0.5 mg/dL
Ca (6 h): 11 mg/dL
Cl (6 h): 104.8 meq/L
DBIL (6 h): 0.008 mg/dL
GLC (6 h): 191.8 mg/dL
IP (6 h): 10.5 mg/dL
K (6 h): 4.7 meq/L
LDH (6 h): 152.6 IU/L
Na (6 h): 139.4 meq/L
PL (6 h): 132.2 mg/dL
RALB (6 h): 3.6 g/dL
TBIL (6 h): 0.3 mg/dL
TC (6 h): 76 mg/dL
TG (6 h): 36.6 mg/dL
TP (6 h): 5.6 g/dL
gamma-GTP (6 h): 1.8 IU/L
TERMINAL_BW (9 h): 203.2 g
APTT (9 h): 16.7 s
Bas (9 h): 0%
Eos (9 h): 0.4%
Fbg (9 h): 224.6 mg/dL
Hb (9 h): 13.2 g/dL
Ht (9 h): 40.1%
Lym (9 h): 79.2%
MCH (9 h): 21.9 pg
MCHC (9 h): 32.9%
MCV (9 h): 66.5 fL
Mono (9 h): 5.8%
Neu (9 h): 15%
PT (9 h): 12.2 s
Plat (9 h): 104.4 x10_4/uL
RBC (9 h): 603 x10_4/ul
Ret (9 h): 9.2%
WBC (9 h): 97 x10_2/uL
KIDNEY_L (9 h): 1 g
KIDNEY_R (9 h): 1 g
KIDNEY_TOTAL (9 h): 1.9 g
LIVER (9 h): 8.7 g
A/G (9 h): 2.2
ALP (9 h): 889.4 IU/L
ALT (9 h): 31.4 IU/L
AST (9 h): 67 IU/L
BUN (9 h): 13 mg/dL
CRE (9 h): 0.5 mg/dL
Ca (9 h): 10.9 mg/dL
Cl (9 h): 106.4 meq/L
DBIL (9 h): 0.028 mg/dL
GLC (9 h): 190.8 mg/dL
IP (9 h): 11.3 mg/dL
K (9 h): 5 meq/L
LDH (9 h): 139.4 IU/L
Na (9 h): 140 meq/L
PL (9 h): 139.4 mg/dL
RALB (9 h): 3.9 g/dL
TBIL (9 h): 0.3 mg/dL
TC (9 h): 78.2 mg/dL
TG (9 h): 39.8 mg/dL
TP (9 h): 5.7 g/dL
gamma-GTP (9 h): 1.4 IU/L
TERMINAL_BW (24 h): 212 g
APTT (24 h): 15.7 s
Bas (24 h): 0%
Eos (24 h): 0.4%
Fbg (24 h): 214.2 mg/dL
Hb (24 h): 13.1 g/dL
Ht (24 h): 39.2%
Lym (24 h): 84.4%
MCH (24 h): 21.5 pg
MCHC (24 h): 33.2%
MCV (24 h): 64.7 fL
Mono (24 h): 7%
Neu (24 h): 7.8%
PT (24 h): 12.3 s
Plat (24 h): 107.2 x10_4/uL
RBC (24 h): 606.6 x10_4/ul
Ret (24 h): 8.4%
WBC (24 h): 121.5 x10_2/uL
KIDNEY_L (24 h): 1 g
KIDNEY_R (24 h): 1 g
KIDNEY_TOTAL (24 h): 2 g
LIVER (24 h): 10.5 g
A/G (24 h): 2
ALP (24 h): 873 IU/L
ALT (24 h): 35.2 IU/L
AST (24 h): 66.6 IU/L
BUN (24 h): 17.4 mg/dL
CRE (24 h): 0.5 mg/dL
Ca (24 h): 11.2 mg/dL
Cl (24 h): 105.2 meq/L
DBIL (24 h): 0.014 mg/dL
GLC (24 h): 180.4 mg/dL
IP (24 h): 8.1 mg/dL
K (24 h): 4.7 meq/L
LDH (24 h): 106.2 IU/L
Na (24 h): 137.8 meq/L
PL (24 h): 144.6 mg/dL
RALB (24 h): 3.9 g/dL
TBIL (24 h): 0.3 mg/dL
TC (24 h): 78.8 mg/dL
TG (24 h): 71.4 mg/dL
TP (24 h): 5.8 g/dL
gamma-GTP (24 h): 1.4 IU/L

Reference: ChEMBL document CHEMBL3885861, “Open TG-GATES”
